# Data reported in paper PMC8040415, “Para-chloro-2-[^18F]fluoroethyl-etomidate: A promising new PET radiotracer for adrenocortical imaging” (International Journal of Medical Sciences, 2021).
# Values joined by “and” are separate entries in the source; they are usually repeats but may differ in a detail not shown here. Equal values may be shown once. “Also recorded” adds a separate entry of the source.
# Key:
# [1] = Ex-vivo organ distribution in rats; design: species or system Sprague Dawley rats
# Method: A biodistribution study for [^18F]CETO was performed in thirty Sprague Dawley rats. A dose of 5.4±0.9 MBq [^18F]CETO was injected as a bolus in the lateral tail vein, to un-sedated rats. Three rats of each gender were then euthanized by high concentrations of CO2, at five predetermined time points; 10, 30, 60, 120 and 240 min post injection (p.i.), respectively, and their organs were harvested and weighed. Radioactivity content in the organs was measured in a well-type NaI(Tl) scintillation counter, applying correction for dead-time and for decay. The organ radioactivity readings were decay-corrected to the time of injection, and results were expressed as standardized uptake values (SUV).
# [2] = Observation of adverse effects after tracer injection, NHP; assay type: in vivo, Macaca fascicularis; conditions: recovery post-anaesthesia
# Text: After the imaging sessions, the NHP was wakened and de-intubated and, once stable, transported back to its living facility.
# [3] = system: human adrenal tumours and normal adrenal gland; test: Frozen section autoradiography; assay type: binding; conditions: 0.03 nmol/L [^18F]CETO, 60 min
# Method: Tissues from normal human adrenal glands, liver, kidney, spleen and small intestine were used along with samples of different types of adrenal tumours, aldosterone-producing adenomas (APA), cortisol-producing adenomas (CPA), ACC, and pheochromocytoma (PCC). Normal adrenal gland tissues and spleen tissues from non-human primates (NHPs) were also utilized.
# Specimens for autoradiography were prepared from snap-frozen tissue, stored at -70 °C, and divided by a cryotome into 20 μm thick slices. The slices were placed on Superfrost^TM glass slides and stored at -20 °C until the autoradiographic examination. Slides were pre-incubated at room temperature for 20 min in a PBS buffer. Duplicate slides were incubated in 0.03 nmol/L [^18F]CETO for 60 min, in the presence or absence of an excess of metomidate (0.45 µmol/L) to block the specific binding of [^18F]CETO. After incubation, slides were washed for 3 × 3 min in cold PBS buffer, followed by rapid immersion in water. Slides were then dried for 10 min at 37 °C and exposed to Super Resolution Storage Phosphor Screens (PerkinElmer, Downers Grove, IL, USA) for >240 min and scanned in a Cyclone Plus Phosphor Imager (PerkinElmer, Model C431200, Downers Grove, IL, USA).
# [4] = system: CYP11B1 and CYP11B2 in NHP adrenal gland homogenate; test: Saturation binding of [^18F]CETO in adrenal gland homogenate; design: species or system cynomolgus monkey (non-human primate; conditions: saturation study
# Method: (§1) Normal NHP adrenal tissue was weighed and homogenized in 20 volumes of ice-cold 0.32 M sucrose and stored in aliquots at -80 °C until use. For the saturation binding study, the homogenate was further diluted to 20 µg/mL in the assay. Triplicates of each ligand concentration in the range of 0.03-30 nmol/L [^18F]CETO, with and without a competing ligand (1 µmol/L metomidate), were incubated at room temperature for 60 min. For the competition binding assay, 200 µg/mL of NHP adrenal gland tissue was used. Triplicate tubes, containing 10 nM [^18F]CETO were incubated for 60 min at room temperature with three competing ligands, MTO, FETO and CETO, at concentrations between 0 and 30 nmol/L, respectively.
# (§2) The incubations were terminated by filtration under vacuum through Whatman GF/C glass fibre filters, using a cell harvester (Brandel, Gaithersburg, MD). The filters were washed four times with 3 mL PBS buffer and transferred to scintillation tubes where the trapped radioactivity was measured in an automated gamma counter (Wizard 2480, PerkinElmer Downers Grove, IL, USA).
# (§3) The saturation study was repeated twice with normal NHP adrenal gland tissue and the results were used to calculate the equilibrium dissociation constant, Kd, and the total target density for the binding of [^18F]CETO, Bmax. Values for IC50, Bmax and Kd were estimated by GraphPad Prism 8.2, using non-linear regression of the binding curves.
# [5] = PET/CT in non-human primate with kinetic modelling; assay type: in vivo, Macaca fascicularis; conditions: for time of peak uptake in the adrenal glands: SUVmean time-activity curves
# Method: One female NHP, Macaca fascicularis, was obtained from the Astrid Fagræus Laboratory, Karolinska Institute, Comparative Medicine. The NHP was used to compare the [^18F]CETO and [^11C]MTO biodistribution and their uptake over time in adrenal and liver.
# Ketamine (~10 mg/kg) was used as a sedative. Whilst being transported to the PET centre at Uppsala University Hospital, the NPH was weighed and maintained on iterated ketamine injections (15 mg/kg/h). Saturation levels were continuously measured through pulse oximetry, and oxygen administered as needed.
# At the PET centre, the NPH was intubated under propofol-induced anaesthesia. General anaesthesia was maintained by sevoflurane inhalation (1.5 - 5.0%) and artificial ventilation. Two venous catheters were placed - one for blood sampling and one for tracer administration. Body temperature, heart rate, ECG, pCO2, pO2, SaO2 and blood pressure levels were monitored throughout the PET study. A General Electric Discovery MI PET/CT scanner (GE Healthcare, Milwaukee, USA) was used.
# PET/CT positioning was determined by using a scout CT scan, and 6.5 MBq/kg of [^11C]MTO was administered I.V. through the catheter. A baseline dynamic 90 min PET scan over the abdomen was started. After a sufficient waiting period, to allow for the radioactive decay of carbon-11, 4.2 MBq/kg of [^18F]CETO was injected I.V. A 90 min baseline dynamic PET scan was started and was followed by a 15 min whole-body PET examination. Thereafter, a blockage study was performed by administering 0.5 mg/kg etomidate I.V. for 20 min. At the end of etomidate administration, corresponding to approximately 150 min after the baseline [^18F]CETO injection, 19.3 MB/kg of [^18F]CETO was administered I.V., followed by a 90 min dynamic PET scan. The amount of radioactivity used in the blocking study was nearly fivefold that used during the baseline PET examination, in order to render any remaining activity from the baseline scan negligible. During both [^18F]CETO PET scans, discrete venous blood samples (~2 mL) were collected in heparinized tubes at 5, 10, 20, 40 and 80 min p.i. (3 mL at the last time point) of [^18F]CETO to measure radioactivity in whole blood and in plasma and for metabolite analysis. PET images were reconstructed using an ordered-subsets maximisation (OSEM) algorithm including time-of-flight information and resolution recovery. Dynamic images were reconstructed into time frames with increasing durations.
# In the PET images, volumes of interest (VOIs) were drawn over representative subsets of aorta, adrenals, kidneys, liver, lungs, pancreas and spleen and transferred to all dynamic time frames to obtain time-activity curves (TACs), showing SUV as a function of time, after normalization to injected activity per body weight. Plasma TACs were determined by multiplying the aorta TAC with the mean plasma-to-whole blood ratio of the five analysed blood samples. Then, a metabolite-corrected input curve, representing intact tracer in plasma, was calculated by multiplying the plasma TAC with a sigmoid fit to the measured parent fraction data.
# Adrenal time-activity curves were fitted using single-tissue as well as irreversible and reversible two-tissue compartment models. The optimal model to describe the data was determined using the Akaike information criterion. In addition, data were analysed using the Patlak and Logan graphical analysis methods, assuming irreversible and reversible kinetics, respectively. Additionally, whole-body net uptake rate parametric images were calculated using the Patlak method.
# [6] = Radio metabolite analysis of [^18F]CETO in NHP plasma; assay type: in vivo, Macaca fascicularis; conditions: for intact [^18F]CETO: NHP venous plasma
# [7] = Observation of adverse effects after tracer injection, rats; conditions: rats following [^18F]CETO injection
# [8] = system: normal NHP adrenal tissue; test: In vitro association/dissociation kinetics (LigandTracer); design: species or system cynomolgus monkey (non-human primate; conditions: 1:1 kinetic binding model, NHP adrenal homogenate
# Method: To determine the in vitro kinetics for association and dissociation of [^18F]CETO to normal NHP adrenal tissue, 20 µL of homogenate, corresponding to 40 µg of adrenal, was pipetted to a Poly-D-lysine coated cell dish (CELLCOAT™, Greiner Bio-One GmbH, Austria) and allowed to dry for 15 min. Subsequently, the dishes were placed in the inclined rotating holder of a LigandTracer™ yellow instrument (Ridgeview Instruments AB, Uppsala, Sweden) and [^18F]CETO was added with concentrations ranging from 1 to 5 nM to measure the association rate. A higher concentration was added when the previous concentration had reached equilibrium. To measure the dissociation rate, the radioactive solution was replaced with buffer after the highest concentration reached equilibrium. Data were analyzed with TraceDrawer software (Ridgeview Instruments AB, Uppsala, Sweden) and the association rate constant (kon), dissociation rate constant (koff) and equilibrium dissociation constant (KD) were computed using a 1:1 kinetic binding model.
# [9] = PET-MRI in rats with and without metomidate blocking; assay type: in vivo, Sprague Dawley rats
# Text: Sevoflurane inhalation was used for the induction and maintenance of anaesthesia, and an intravenous catheter was placed in the lateral tail vein. After the investigations, the mice/rats were euthanized and their organs harvested and weighed, followed by measurement of radioactivity (as previously described). PET and MRI images were acquired on a Nanoscan PET-3TMRI scanner (Mediso Mediso, Medical Imaging Systems, Budapest, Hungary).
# Two male Sprague Dawley rats were positioned on the heated bed of the scanner and a dynamic PET acquisition of the abdomen was initiated immediately before injection of 4-5 MBq of [^18F]CETO. Metomidate (1 µmol/kg) was co-injected in one of the rats as a blocker. The dynamic PET scan was continued for 60 min and was followed by a whole-body static scan, 3 beds, 5 min per bed position ~90 min post injection, and by MRI of the abdomen.
# PET acquisition was initiated and 4.0-4.8 MBq of […] was intravenously administered. One of the rats was given metomidate (1 µmol/kg) I.V., for a blockage study. An initial dynamic PET scan of the abdomen was performed for 60 min, followed by a baseline whole body PET scan for 15 min.
# NHP adrenal gland tissue = test: Competition binding assay against 10 nM [^18F]CETO; design: species or system cynomolgus monkey (non-human primate; conditions: residual binding of 10 nM [^18F]CETO, NHP adrenal gland tissue 200 µg/mL, 60 min, room temperature
# Method: as §1, §2, §3
compound,measurement,setting,value
"C[C@H](c1ccc(Cl)cc1)n1cncc1C(=O)OCC[18F] [[^18F]CETO, para-chloro-2-[^18F]fluoroethyl-etomidate]",time of peak uptake in the adrenal glands,[1]; ex-vivo biodistribution,2 hr p.i.
same,uptake in all other organs and tissues (SUV),"[1]; other than adrenal glands and early lungs and pancreas, bone and urinary bladder are exceptions",~1 SUV
same,adverse effects,[2],no adverse effects
same,uptake in APAs compared to that of the normal adrenal gland,[3],approximately threefold
same,Bmax,[4],0.0082 to 0.0097 nmol/mg
same,Kd,"[4]; room temperature, 60 min, read-out: equilibrium dissociation constant, Kd",0.66 nM and 0.66 to 0.67 nM and 0.67 nM
same,Bmax,[4]; separate experiments A and B,0.0097 nmol/mg and 0.0082 nmol/mg
same,highest adrenal-to-liver ratio,"[5]; NHP, 85 min p.i.",> 5
same,time of peak uptake in the adrenal glands,[5]; NHP,> 85 min p.i.
same,rate constant k3 in the adrenal glands after blocking,"[5]; NHP, after etomidate 0.5 mg/kg, irreversible two-tissue compartment model",reduced to zero
same,route of elimination,[5]; NHPs,mainly renal
same,intact [^18F]CETO,[6]; 5 min p.i.,56%
same,intact [^18F]CETO,[6]; 80 min p.i.,11%
same,[^18F]CETO share of radioactivity in plasma,"[6]; NHP, final observation time point 90 min p.i.",approximately 10%
same,half-life,"[6]; female, cynomolgus monkey, plasma, intravenous, NHP, bi-phasic metabolism, read-out: plasma half-life, fast first phase",~10 min
same,adverse effects,[7],No adverse effects
same,koff,[8],0.00035 s⁻¹
same,Kd,[8]; read-out: Kd value derived from the rate constants,0.59 nM
same,route of elimination,[9],mainly renal
same,time of peak adrenal uptake,[9],120 min p.i.
C[C@H](c1ccc(Cl)cc1)n1cncc1C(=O)OCCF [CETO],IC50,NHP adrenal gland tissue,5 nM
"C[C@H](c1ccccc1)n1cncc1C(=O)OCC[18F] [[^18F]FETO, 2-[^18F]fluoroethyl-etomidate]",blocking of adrenal uptake with metomidate,[9]; metomidate 1 µmol/kg,unable to block; also recorded: not possible to block
"C[C@H](c1ccccc1)n1cncc1C(=O)O[11CH3] [[^11C]MTO, [^11C]Metomidate, reference compound]",highest adrenal-to-liver ratio,"[5]; NHP, 40 minutes p.i.",1.5
same,time of peak uptake in the adrenal glands,[5]; NHP,approximately 40 min p.i.
"COC(=O)c1cncn1C(C)c1ccccc1 (centres unmarked) [MTO, metomidate]",IC50,NHP adrenal gland tissue,2 nM
C[C@H](c1ccccc1)n1cncc1C(=O)OCCF [FETO],IC50,NHP adrenal gland tissue,3 nM
